# Experimental data reported in the supplement of paper PMC11061612.
# Tests used:
# Assay in all cases: Bliss excess, mean over the matrix (fraction); higher = more synergy
# [1] = test system: NCI-H1792 (Lung Adenocarcinoma)
# Outline: (§1)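 Cell lines grown in DMEM/F12 or RPMI with 10% FBS were plated in 1536-well plates and held 24 hours at 37°C, 5% CO2 before 72 hours of exposure to two-drug dose matrices, with DMSO typically at 0.2%. CellTiter-Glo 2.0 luminescence gave viability, which was converted to inhibition. Vehicle wells were set to 0 and blank wells to 1. Combination Emax is the second-highest inhibition in the matrix, and Bliss excess is the observed combination effect minus the expected EA + EB − EA·EB, where EA and EB are the single-agent effects.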
# [2] = test system: DND-41 (T-Lymphoblastic Leukemia)
# Outline: as §1
# [3] = test system: CAMA-1 (Breast Carcinoma)
# Outline: as §1
# [4] = test system: TE-6 (Esophageal Squamous Cell Carcinoma)
# Outline: as §1
# [5] = test system: MEL-JUSO (Melanoma)
# Outline: as §1
# [6] = test system: TC-71 (Ewing's Sarcoma)
# Outline: as §1
# [7] = test system: BL-41 (Burkitt's Lymphoma)
# Outline: as §1
# [8] = test system: WIL2-NS (Non-Cancerous)
# Outline: as §1
# [9] = test system: KM12 (Colorectal Carcinoma)
# Outline: as §1
# [10] = test system: MFM-223 (Breast Carcinoma)
# Outline: as §1
# [11] = test system: DiFi (Colorectal Carcinoma)
# Outline: as §1
# [12] = test system: LN-18 (Glioblastoma)
# Outline: as §1
# [13] = test system: COLO-678 (Colorectal Carcinoma)
# Outline: as §1
# [14] = test system: PANC-08-13 (Pancreatic Carcinoma)
# Outline: as §1
# [15] = test system: KYSE-180 (Esophageal Squamous Cell Carcinoma)
# Outline: as §1
# [16] = test system: CHP-212 (Neuroblastoma)
# Outline: as §1
# [17] = test system: SW1417 (Colorectal Carcinoma)
# Outline: as §1
# [18] = test system: MKN28 (Gastric Carcinoma)
# Outline: as §1
# [19] = test system: TOV-112D (Ovarian Carcinoma)
# Outline: as §1
Structure (SMILES),Bliss excess [1],Bliss excess [2],Bliss excess [3],Bliss excess [4],Bliss excess [5],Bliss excess [6],Bliss excess [7],Bliss excess [8],Bliss excess [9],Bliss excess [10],Bliss excess [11],Bliss excess [12],Bliss excess [13],Bliss excess [14],Bliss excess [15],Bliss excess [16],Bliss excess [17],Bliss excess [18],Bliss excess [19]
"COc1nnc2ccc(N3CCC(c4ccc(OCCN5CCN(C)C(=O)[C@H]5C)cc4)CC3)nn12 [AZD5153] + C[C@@H]1COCCN1C2=NC(=NC(=C2)C3(CC3)[S@](=N)(=O)C)C4=C5C=CNC5=NC=C4 [AZD6738] (first compound max 1 µM, 7x7, partner max 10 µM)",-0.0628,0.0628,-0.0091,-0.0503,0.0624,0.0254,-0.0562,-0.0766,0.0526,-0.0011,0.0524,-0.02,0.0502,0.035,0.0656,-0.0197,0.0052,-0.0072,0.0306
"CC(=O)c1c(C)c2cnc(Nc3ccc(N4CCNCC4)cn3)nc2n(C2CCCC2)c1=O [Palbociclib] + Cn1cnc2c(F)c(Nc3ccc(Br)cc3Cl)c(C(=O)NOCCO)cc21 [Selumetinib] (first compound max 10 µM, 7x7, partner max 10 µM)",0.119,0.0601,-0.027,0.0172,0.0028,-0.012,-0.0131,-0.0133,0.0039,0.0341,0.0274,0.0293,-0.071,-0.0053,-0.0135,-0.0313,-0.0094,0.0275,0.068
"C[C@@H](c1ccc2nccn2c1)n1nnc2ncc(-c3cnn(C)c3)nc21 [Savolitinib] + CC1(C)CCC(CN2CCN(c3ccc(C(=O)NS(=O)(=O)c4ccc(NCC5CCOCC5)c([N+](=O)[O-])c4)c(Oc4cnc5[nH]ccc5c4)c3)CC2)=C(c2ccc(Cl)cc2)C1 [Venetoclax] (first compound max 1 µM, 7x7, partner max 1 µM)",-0.0597,-0.0082,-0.0211,-0.0559,-0.0919,-0.0517,-0.0365,-0.0285,-0.0559,-0.0414,-0.0468,-0.0265,-0.112,-0.0436,-0.0326,-0.0707,-0.0509,-0.0464,-0.0489
"COc1nnc2ccc(N3CCC(c4ccc(OCCN5CCN(C)C(=O)[C@H]5C)cc4)CC3)nn12 [AZD5153] + C=CCn1c(=O)c2cnc(Nc3ccc(N4CCN(C)CC4)cc3)nc2n1-c1cccc(C(C)(C)O)n1 [AZD1775] (first compound max 1 µM, partner max 1 µM)",-0.0428,-0.0027,-0.0121,-0.0166,0.0131,0.0354,-0.0454,-0.105,-0.0456,-0.0679,-0.0761,-0.0502,-0.0287,0.0108,-0.0323,-0.0294,-0.0254,-0.0617,-0.0434
"C[C@@H](c1ccc2nccn2c1)n1nnc2ncc(-c3cnn(C)c3)nc21 [Savolitinib] + Cc1c2c(nn1C)CSCc1cc(n(C)n1)CSc1cc(c3ccccc3c1)OCCCc1c(C(=O)O)n(C)c3c-2c(Cl)ccc13 [AZD5991] (first compound max 1 µM, 7x7, partner max 1 µM)",-0.0279,-0.0188,-0.0136,-0.0541,-0.0269,-0.021,-0.0318,-0.0262,-0.0256,-0.0228,-0.0321,0.005,-0.0899,-0.0452,-0.0117,-0.0437,-0.0228,-0.045,-0.0242
"Cn1cnc2c(F)c(Nc3ccc(Br)cc3Cl)c(C(=O)NOCCO)cc21 [Selumetinib] + C=CCn1c(=O)c2cnc(Nc3ccc(N4CCN(C)CC4)cc3)nc2n1-c1cccc(C(C)(C)O)n1 [AZD1775] (first compound max 10 µM, partner max 1 µM)",-0.0647,-0.0248,-0.0309,0.0165,-0.0388,-0.039,-0.0162,0.0363,-0.0672,-0.0831,0.0233,-0.0103,0.0011,-0.0849,-0.122,-0.0257,0.0387,-0.0192,-0.0497
"NC1(C(=O)N[C@@H](CCO)c2ccc(Cl)cc2)CCN(c2ncnc3[nH]ccc23)CC1 [Capivasertib] + C[C@@H]1COCCN1C2=NC(=NC(=C2)C3(CC3)[S@](=N)(=O)C)C4=C5C=CNC5=NC=C4 [AZD6738] (first compound max 10 µM, 7x7, partner max 10 µM)",-0.0208,-0.0221,-0.0149,-0.0476,0.0083,0.0295,-0.0552,-0.0529,0.0297,-0.0626,-0.122,-0.0463,-0.051,0.0128,-0.0866,-0.0156,-0.0282,-0.0459,-0.0632
"CC(=O)c1c(C)c2cnc(Nc3ccc(N4CCNCC4)cn3)nc2n(C2CCCC2)c1=O [Palbociclib] + Cc1c2c(nn1C)CSCc1cc(n(C)n1)CSc1cc(c3ccccc3c1)OCCCc1c(C(=O)O)n(C)c3c-2c(Cl)ccc13 [AZD5991] (first compound max 10 µM, 7x7, partner max 1 µM)",-0.0186,0.0043,-0.0525,-0.0272,-0.103,-0.0182,-0.0691,-0.0608,-0.0194,-0.0784,-0.0139,-0.0153,-0.0814,-0.0427,-0.0602,0.0199,-0.0089,-0.0385,0.0428
"COc1nnc2ccc(N3CCC(c4ccc(OCCN5CCN(C)C(=O)[C@H]5C)cc4)CC3)nn12 [AZD5153] + CCN(CCO)CCCOc1ccc2c(Nc3cc(CC(=O)Nc4cccc(F)c4)[nH]n3)ncnc2c1 [AZD2811] (first compound max 1 µM, 7x7, partner max 1 µM)",-0.083,0.0529,-0.0311,-0.0501,-0.0003,-0.0316,-0.0369,-0.0421,-0.0112,-0.0622,-0.068,-0.107,-0.0409,-0.0175,0.0356,-0.027,-0.0301,-0.0244,-0.0297
"NC1(C(=O)N[C@@H](CCO)c2ccc(Cl)cc2)CCN(c2ncnc3[nH]ccc23)CC1 [Capivasertib] + CC(C)n1c(=O)n(C)c2cnc3cc(F)c(-c4ccc(OCCCN5CCCCC5)nc4)cc3c21 [AZD1390] (first compound max 10 µM, 7x7, partner max 0.3 µM)",-0.0625,-0.0595,-0.0558,-0.134,-0.0784,-0.0567,-0.193,-0.0379,-0.0399,-0.0098,-0.0436,-0.0325,-0.0754,-0.0908,-0.0509,-0.0965,-0.0394,-0.0634,-0.0276
"Cn1cnc2c(F)c(Nc3ccc(Br)cc3Cl)c(C(=O)NOCCO)cc21 [Selumetinib] + CC(C)n1c(=O)n(C)c2cnc3cc(F)c(-c4ccc(OCCCN5CCCCC5)nc4)cc3c21 [AZD1390] (first compound max 10 µM, 7x7, partner max 0.3 µM)",-0.0075,-0.0022,-0.0429,-0.0528,-0.0291,-0.0211,0.0029,-0.0251,-0.0376,-0.033,0.0004,-0.0148,-0.0409,-0.0365,-0.042,-0.0337,-0.0094,-0.0463,-0.0262
"Cn1cnc2c(F)c(Nc3ccc(Br)cc3Cl)c(C(=O)NOCCO)cc21 [Selumetinib] + CCN(CCO)CCCOc1ccc2c(Nc3cc(CC(=O)Nc4cccc(F)c4)[nH]n3)ncnc2c1 [AZD2811] (first compound max 10 µM, 7x7, partner max 1 µM)",0.0143,0.0298,-0.0227,-0.0282,-0.0206,0.0298,0.0338,0.0264,-0.0409,-0.0363,0.0371,-0.0192,-0.0223,-0.0278,-0.0408,-0.0316,0.058,-0.0317,-0.01
"Cc1nc(Nc2ncc(C(=O)Nc3c(C)cccc3Cl)s2)cc(N2CCN(CCO)CC2)n1 [Dasatinib] + CC(=O)Nc1cccc(-n2c(=O)n(C3CC3)c(=O)c3c(Nc4ccc(I)cc4F)n(C)c(=O)c(C)c32)c1 [Trametinib] (first compound max 2 µM, 7x7, partner max 1 µM)",0.0422,-0.0333,-0.0382,-0.0255,-0.0878,-0.0333,0.0075,0.133,-0.108,-0.0546,-0.0465,-0.0433,-0.0945,0.143,-0.0424,0.0235,0.131,0.0027,0.0773
"NC1(C(=O)N[C@@H](CCO)c2ccc(Cl)cc2)CCN(c2ncnc3[nH]ccc23)CC1 [Capivasertib] + COc1nnc2ccc(N3CCC(c4ccc(OCCN5CCN(C)C(=O)[C@H]5C)cc4)CC3)nn12 [AZD5153] (first compound max 10 µM, 7x7, partner max 1 µM)",0.0039,0.0339,0.106,-0.0708,-0.0049,0.0228,0.036,-0.0933,0.0143,-0.0302,-0.056,0.0494,-0.0688,0.0483,0.0387,0.0469,-0.0135,-0.0075,0.0088
"COc1nnc2ccc(N3CCC(c4ccc(OCCN5CCN(C)C(=O)[C@H]5C)cc4)CC3)nn12 [AZD5153] + Cc1c2c(nn1C)CSCc1cc(n(C)n1)CSc1cc(c3ccccc3c1)OCCCc1c(C(=O)O)n(C)c3c-2c(Cl)ccc13 [AZD5991] (first compound max 1 µM, 7x7, partner max 1 µM)",-0.0008,0.0181,0.0283,-0.0701,-0.0507,0.0285,-0.025,-0.0255,-0.0473,-0.0258,-0.0066,-0.0751,-0.0476,0.0228,-0.0033,-0.0281,-0.0252,-0.0235,0.0347
